The test system of data set [1] is occluded tissue / low limb. Briefly: Dynamic Rb-82 PET, tracer flux K1 in lower extremity, human study. It counts as in vivo. Particulars: for average K1 value: diabetic subject, 3D region of interest on the low limb, parametric imaging. As to the method:
CT scan was performed on the subject for standard attenuation correction, multi-energy low dose contrast CT imaging was performed to define lower extremity vasculature and attenuation correction was performed using virtual non-contrast images; 518±37 MBq Rb-82 is administered to the subject using automated generation and infusion system agent; single bed PET acquisition of the heart for about 2-7 minutes is performed; single bed centered PET acquisition at abdominal aorta of the subject for about 1-3 minutes is performed; continuous bed motion PET scan of the subject between abdominal aorta and legs is performed; input function was calculated from abdominal artery; Tracer flux (K1) into the tissue or region of interest is calculated as volume per unit time per unit volume of tissue. […] FIG. 5 represents the image acquisition protocol during human study. FIG. 7 represents the muscle volumes in human studies.

The subject of data set [2] is occluded tissue (lower extremity). The data set is described as follows: Dynamic Rb-82 PET, tracer flux K1 in lower extremity, animal study. Type of data set: in vivo, porcine pigs. Particulars: occluded tissue in comparison to non-occluded tissue; 518±37 MBq Rb-82. As to the method: CT scan was performed on the subject for standard attenuation correction, and multi-energy low dose contrast CT imaging was performed to define the lower extremity vasculature and attenuation correction was performed using virtual non-contrast images; 518±37 MBq Rb-82 was administered to the subject using automated generation and infusion system; single bed PET acquisition of the heart for about 1-10 minutes, was performed; single bed PET acquisition of the leg for about 1-10 minutes was performed; single bed centered PET acquisition at abdominal aorta of the subject for about 1-3 minutes was performed; continuous bed motion PET scan of the subject between abdominal aorta and legs was performed; tracer flux (K1) into the tissue or region of interest is calculated as volume per unit time per unit volume of tissue. […] It was validated by injecting microspheres over 30 seconds during the PET imaging at either rest or stress conditions for each animal and blood flow was measured in both gastrocnemius and soleus muscles. FIG. 4 represents the sample animal K1 parametric image with AA as the input function. FIG. 6 represents the muscle volumes in animal studies.

In data set [3] the test system is calf muscles, hindlimb ischemia (HLI). The data set is described as follows: Rb-82 PET/CT of calf muscles in rabbit hindlimb ischemia at rest and cuff-induced hyperemia. Type of data set: in vivo, rabbits. The conditions noted are these: for SMP SUV: cuff-induced hyperemia (CIH); for Mean Rb-82 SUV: rest, 1.5 mCi. As to the method: Methods: Hindlimb ischemia (HLI) was created in rabbits (n=8) by right femoral ligations and Rb-82 PET/CT imaging performed on digital PET scanner (Vision600, Siemens) at either 2 or 4 weeks post-ligation. Rabbits were injected with Rb-82 (1.5 mCi) with constant activity infusion over 30 seconds at rest and 30 seconds following hyperemia induced by 3 minutes cuff occlusion of thighs bilaterally. PET images were acquired with shuttling scanner from heart to feet using 8 passes over 7 minutes. Summed images were created excluding the first 90 seconds post injection. Calf muscles were segmented based on CT images. Mean Rb-82 standardized uptake values (SUVs) were calculated for calf muscles—gastrocnemius (GC), plantaris (PLA), soleus (SOL), tibialis anterior (TA), extensor digitorum longus (EDL), peroneus (PER)—for both ischemic (I) and non-ischemic (NI) limbs. CT angiography was performed, and tissues analyzed for fiber type and capillary density.

Another data set relates to calf muscles. Briefly: Rb PET/CT calf muscle perfusion at rest and reactive hyperemia in controls and PAD patients. It counts as in vivo, human. As to the method: Methods: Rb PET/CT imaging (Vision600, Siemens) was performed in healthy controls (n=6) and PAD patients (n=6). Rb (20-30 mCi) was delivered using a constant activity infusion over […], with PET images acquired by shuttling scanner from either heart (Protocol 1) or abdomen (Protocol 2) to feet using 8-11 passes over 7 minutes. Abdominal protocol was repeated 30 seconds after RH induced by 5 minutes bilateral thigh cuff occlusion. Mean Rb standardized uptake values (SUV), excluding the input function, were determined for calf muscles segmented in both legs using hybrid CT images including: gastrocnemius (GC), soleus (SOL), tibialis anterior (TA), extensor digitorum longus (EDL), and peroneus (PER) (FIG. 10A).

`[15OH2]` [^15O-water]: the “average K1 value” in data set [1] amounted to 0.039.
Turning to Rb-82 chloride, the “Average K1 (tracer flux)” value in data set [2] is “less than 0.05 ml/min/cm^3”; in data set [1] (occluded tissue in comparison to non-occluded tissue, 518±37 MBq Rb-82), “less than 0.05 ml/min/cm^3”. The results for the “SMP SUV” value in data set [3] (ischemic (I) limb) and in data set [3] (non-ischemic (NI) limb) were 1.02±0.32 and 1.14±0.34, respectively. Besides, the “Mean Rb-82 SUV” value in data set [3] (ischemic (I) limb across calf muscles) was found to be 0.55±0.18; in data set [3] (non-ischemic (NI) limb across calf muscles) it was 0.51±0.16. The “average K1 value” in data set [1] is listed as 0.032. In addition, the “Mean Rb SUV” value in the data set with calf muscles (reactive hyperemia (RH), PAD patients, gastrocnemius (GC)) stood at 0.96±0.58; with calf muscles (reactive hyperemia (RH), PAD patients, soleus (SOL)), 1.08±0.76; with calf muscles (reactive hyperemia (RH), controls, gastrocnemius (GC)), 0.38±0.18; in the data set on calf muscles (reactive hyperemia (RH), controls, soleus (SOL)) it was 0.34±0.14; in the data set on calf muscles (rest, PAD subjects, gastrocnemius (GC)), 0.50±0.11; in the data set on calf muscles (rest, PAD subjects, soleus (SOL)), 0.66±0.20. Further, the “Mean Rb SUV” value in the data set with calf muscles (rest, controls, gastrocnemius (GC)) came out at 0.44±0.11; in the data set on calf muscles (rest, controls, soleus (SOL)) it was 0.52±0.12.
